The experiment addresses T1, human FAAH (Homo sapiens, UniProt O00519).
T1 construct: expressed in transfected cells; host or cells: H4 cells stably transfected with human FAAH (Geneticin selection); crude membrane homogenates
T1 sequence (O00519 1-579): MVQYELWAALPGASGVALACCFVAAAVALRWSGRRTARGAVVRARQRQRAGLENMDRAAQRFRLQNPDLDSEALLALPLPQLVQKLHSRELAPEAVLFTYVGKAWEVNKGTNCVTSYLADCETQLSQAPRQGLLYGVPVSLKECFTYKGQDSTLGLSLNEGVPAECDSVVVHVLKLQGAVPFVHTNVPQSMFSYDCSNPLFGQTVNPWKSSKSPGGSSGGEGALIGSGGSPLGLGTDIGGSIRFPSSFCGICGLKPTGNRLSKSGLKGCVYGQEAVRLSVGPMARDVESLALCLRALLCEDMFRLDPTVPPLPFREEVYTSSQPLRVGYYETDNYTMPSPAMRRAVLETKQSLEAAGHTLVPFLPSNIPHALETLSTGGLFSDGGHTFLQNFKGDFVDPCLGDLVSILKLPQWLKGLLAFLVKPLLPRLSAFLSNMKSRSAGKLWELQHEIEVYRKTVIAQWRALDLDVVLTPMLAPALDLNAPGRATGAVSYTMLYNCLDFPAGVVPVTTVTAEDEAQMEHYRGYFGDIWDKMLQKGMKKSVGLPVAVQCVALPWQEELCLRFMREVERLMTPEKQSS
The experiment is described as follows: Determination of FAAH activity (membrane homogenates of H4-FAAH cells, [3H]-anandamide hydrolysis). The class given is biochemical. The settings on record: transfected human FAAH, H4-FAAH cell membranes, 10 μM anandamide, room temperature, one hour. The protocol: Homogenates of crude membranes were prepared from H4 cells that express transfected human FAAH (H4-FAAH cells). Briefly, cells were grown in DMEM supplemented with 10% FBS and Geneticin at a final concentration of 500 μg/ml (Gibco BRL, Rockville, Md.). Confluent cultures of H4-FAAH cells were rinsed twice with phosphate-buffered saline [138 mM NaCl, 4.1 mM KCl, 5.1 mM Na2PO4, 1.5 mM KH2PO4 (pH 7.5), 37° C.] and incubated for 5-10 min. at 4° C. in lysis buffer [1 mM sodium bicarbonate]. Cells were transferred from plates to polypropylene tubes (16×100 mm), homogenized and centrifuged at 32,000×g for 30 min. Pellets were resuspended by homogenization in lysis buffer and centrifuged at 32,000×g for 30 min. Pellets were resuspended in lysis buffer (15-20 μg protein/ml) then stored at −80° C. until needed. On the day of an experiment, membranes were diluted to 2.67 μg protein/ml in 125 mM Tris-Cl, pH 9.0
Activity of FAAH was measured using a modification of the method described by Omeir et al., 1995 (Life Sci 56:1999, 1995). Membrane homogenates (240 ng protein) were incubated at room temperature for one hour with 1.67 nM anandamide [ethanolamine 1-^3H] (American Radiolabeled Chemical Inc., St Louis, Mo.) and 10 μM anandamide (Sigma/RBI, St. Louis, Mo.) in the absence and presence of inhibitors. The reaction was stopped by the addition of 1 volume of a solution of methanol and dichloroethane (1:1). The mixture was shaken and then centrifuged at 1000×g for 15 min. to separate the aqueous and organic phases. An aliquot of the aqueous phase, containing [^3H]-ethanolamine was withdrawn and counted by scintillation spectroscopy. Data were expressed as the percentage of [^3H]-ethanolamine formed versus vehicle, after subtraction of the background radioactivity determined in the presence of 10 μM arachidonyl trifluoromethyl ketone (ATFMK), an inhibitor of FAAH. IC50 values were determined using a four-parameter logistic equation for dose-response curves.

For orientation: IC50 means the concentration that gives 50% inhibition. The low end stands for greater potency in that assay, the high end for weaker potency in that assay. Turning to `Cc1nc(-c2ccccc2)c(-c2ccccc2)n1CCCCCCCNC(=O)Oc1ccc(F)cc1F` [Example 23, [7-(2-Methyl-4,5-diphenyl-imidazol-1-yl)-heptyl]-carbamic acid 2,4-difluoro-phenyl ester], the IC50 fell in the range of 10 to 100 nM. The figure for `COc1cccc(OC)c1OC(=O)NCCCCCn1c(C)nc(-c2ccccc2)c1-c1ccccc1` [Example 39, [5-(2-Methyl-4,5-diphenyl-imidazol-1-yl)-pentyl]-carbamic acid 2,6-dimethoxy-phenyl ester] is 1000 to 10000 nM; for `Cc1nc(-c2ccccc2)c(-c2ccccc2)n1CCCCCCCNC(=O)Oc1ccccc1` [Example 20, [7-(2-Methyl-4,5-diphenyl-imidazol-1-yl)-heptyl]-carbamic acid phenyl ester] it is less than 10 nM; for `Cc1nc(-c2ccccc2)c(-c2ccccc2)n1CCCCCCNC(=O)O/N=C/c1ccccc1[N+](=O)[O-]` [Example 48, 2-Nitrobenzaldehye, O-[6-(2-methyl-4,5-diphenyl-1H-imidazol-1-yl)hexylaminocarbonyl]oxime] it is 10 to 100 nM. To `COc1ccccc1OC(=O)NCCCCCn1c(C)nc(-c2ccccc2)c1-c1ccccc1` [Example 40, [5-(2-Methyl-4,5-diphenyl-imidazol-1-yl)-pentyl]-carbamic acid 2-methoxy-phenyl ester] belongs 100 to 1000 nM.

For the compound `CCOC(=O)Nc1ccc(OCCn2c(C)nc(-c3ccccc3)c2-c2ccccc2)cc1` [Example 70, {4-[2-(2-Methyl-4,5-diphenyl-imidazol-1-yl)-ethoxy]-phenyl}-carbamic acid ethyl ester], the IC50 was in the range of 1000 to 10000 nM. The figure for `Cc1nc(-c2ccccc2)c(-c2ccccc2)n1CCOc1ccc(NC(=O)Oc2ccc(F)c(F)c2)cc1` [Example 52, {4-[2-(2-Methyl-4,5-diphenyl-imidazol-1-yl)-ethoxy]-phenyl}-carbamic acid 3,4-difluoro-phenyl ester] is 1000 to 10000 nM; for `CCOC(=O)NCCCCCCCn1c(C)nc(-c2ccccc2)c1-c1ccccc1` [Example 19, [7-(2-Methyl-4,5-diphenyl-imidazol-1-yl)-heptyl]-carbamic acid ethyl ester] it is 10 to 100 nM. In the case of `Cc1nc(-c2ccccc2)c(-c2ccccc2)n1CCCCCCCNC(=O)Oc1ccccc1F` [Example 22, [7-(2-Methyl-4,5-diphenyl-imidazol-1-yl)-heptyl]-carbamic acid 2-fluoro-phenyl ester], the IC50 is less than 10 nM. The figure for `Cc1ccccc1OC(=O)NCCCCCCCn1c(C)nc(-c2ccccc2)c1-c1ccccc1` [Example 26, [7-(2-Methyl-4,5-diphenyl-imidazol-1-yl)-heptyl]-carbamic acid o-tolyl ester] is 10 to 100 nM; for `Cc1nc(-c2ccccc2)c(-c2ccccc2)n1CCOc1ccc(NC(=O)Oc2ccc(F)cc2)cc1` [Example 62, {4-[2-(2-Methyl-4,5-diphenyl-imidazol-1-yl)-ethoxy]-phenyl}-carbamic acid 4-fluoro-phenyl ester] it is 1000 to 10000 nM.

With `Cc1nc(-c2ccccc2)c(-c2ccccc2)n1CCCOc1ccc(NC(=O)Oc2c(F)cccc2F)cc1` [Example 69, {4-[3-(2-Methyl-4,5-diphenyl-imidazol-1-yl)-propoxy]-phenyl}-carbamic acid 2,6-difluoro-phenyl ester], the IC50 is 1000 to 10000 nM. The figure for `CCC(CCCCCn1c(C)nc(-c2ccccc2)c1-c1ccccc1)NC(=O)Oc1ccccc1F` (centres unmarked) [Example 72, [1-Ethyl-6-(2-methyl-4,5-diphenyl-imidazol-1-yl)-hexyl]-carbamic acid 2-fluoro-phenyl ester] is 10 to 100 nM; for `Cc1ccccc1OC(=O)NCCCCCn1c(C)nc(-c2ccccc2)c1-c1ccccc1` [Example 37, [5-(2-Methyl-4,5-diphenyl-imidazol-1-yl)-pentyl]-carbamic acid o-tolyl ester] it is 100 to 1000 nM.

The values above are taken from patent publication USRE39634E1, “Bisarylimidazoly fatty acid amide hydrolase inhibitors” (Bristol-Myers Squibb Company, priority 2001, dated 2007).
